Measurements reported in the NIST ThermoML archive (doi:10.1016/j.tca.2014.11.009).

Experiment: xn = mol fraction of the nth substance listed
Conditions: 100 kPa, Liquid; for speed of sound: Frequency=3 MHz, Sing-around technique in a fixed-path interferometer; for mass density: Vibrating tube method

O=Cc1ccco1 [2-furaldehyde] + CCC(C)O
Conditions | mass density, 283.15 K [kg/m3] | mass density, 293.15 K [kg/m3] | mass density, 303.15 K [kg/m3] | mass density, 313.15 K [kg/m3] | speed of sound, 283.15 K [m/s] | speed of sound, 293.15 K [m/s] | speed of sound, 303.15 K [m/s] | speed of sound, 313.15 K [m/s]
x1 = 0.0501 | 831.27 | 822.97 | 814.4 | 805.5 | 1279.1 | 1242.7 | 1206.1 | 1169.4
x1 = 0.1001 | 847.35 | 838.83 | 830.06 | 820.99 | 1289.1 | 1252.7 | 1216.1 | 1179.5
x1 = 0.1507 | 863.92 | 855.21 | 846.24 | 837.01 | 1299.3 | 1263.1 | 1226.6 | 1190
x1 = 0.2001 | 880.27 | 871.37 | 862.24 | 852.86 | 1309.5 | 1273.3 | 1236.9 | 1200.5
x1 = 0.3001 | 913.96 | 904.72 | 895.3 | 885.68 | 1330.4 | 1294.4 | 1258.3 | 1222.1
x1 = 0.3501 | 931.13 | 921.74 | 912.18 | 902.46 | 1341.2 | 1305.4 | 1269.3 | 1233.2
x1 = 0.4001 | 948.49 | 938.98 | 929.33 | 919.51 | 1352 | 1316.4 | 1280.4 | 1244.1
x1 = 0.4501 | 966.01 | 956.37 | 946.59 | 936.66 | 1363.4 | 1327.8 | 1291.9 | 1256
x1 = 0.5 | 983.65 | 973.9 | 964.03 | 954.03 | 1375.1 | 1339.4 | 1303.5 | 1267.6
x1 = 0.55 | 1001.41 | 991.58 | 981.69 | 971.7 | 1387.3 | 1351.4 | 1315.5 | 1279.6
x1 = 0.6 | 1019.4 | 1009.48 | 999.51 | 989.44 | 1399.4 | 1363.4 | 1327.4 | 1291.5
x1 = 0.6501 | 1037.63 | 1027.6 | 1017.53 | 1007.37 | 1411.8 | 1375.7 | 1339.6 | 1303.6
x1 = 0.8001 | 1093.43 | 1083.14 | 1072.78 | 1062.25 | 1448.5 | 1412 | 1375.6 | 1339.5
x1 = 0.8999 | 1131.48 | 1121 | 1110.45 | 1099.81 | 1472.1 | 1435.7 | 1399.2 | 1363.1
x1 = 1 | 1169.93 | 1159.33 | 1148.69 | 1138.01 | 1495.4 | 1458.8 | 1422.5 | 1386.5

O=Cc1ccco1 [2-furaldehyde] + CCCCO
Conditions | mass density, 283.15 K [kg/m3] | mass density, 293.15 K [kg/m3] | mass density, 303.15 K [kg/m3] | mass density, 313.15 K [kg/m3] | speed of sound, 283.15 K [m/s] | speed of sound, 293.15 K [m/s] | speed of sound, 303.15 K [m/s] | speed of sound, 313.15 K [m/s]
x1 = 0.0501 | 833.74 | 825.93 | 818 | 809.97 | 1301.8 | 1267.2 | 1233 | 1199.2
x1 = 0.1 | 850.14 | 842.12 | 833.98 | 825.71 | 1310.6 | 1275.9 | 1241.6 | 1207.7
x1 = 0.15 | 866.88 | 858.65 | 850.29 | 841.84 | 1319.6 | 1285 | 1250.5 | 1216.4
x1 = 0.1999 | 883.58 | 875.14 | 866.67 | 858.15 | 1328.7 | 1293.9 | 1259.3 | 1225.2
x1 = 0.2499 | 900.71 | 892.12 | 883.46 | 874.76 | 1337.3 | 1302.9 | 1268.4 | 1234.2
x1 = 0.3 | 917.89 | 909.1 | 900.31 | 891.55 | 1346.9 | 1312.1 | 1277.6 | 1243.3
x1 = 0.4 | 953.02 | 943.94 | 934.84 | 925.74 | 1365.5 | 1330.9 | 1296.4 | 1262.1
x1 = 0.45 | 970.58 | 961.33 | 952.08 | 942.85 | 1375.2 | 1340.7 | 1306.1 | 1271.7
x1 = 0.5 | 988.52 | 979.14 | 969.78 | 960.42 | 1385.7 | 1351 | 1316.3 | 1281.9
x1 = 0.5473 | 1005.5 | 995.94 | 986.39 | 976.86 | 1395.8 | 1361 | 1326.2 | 1291.7
x1 = 0.6999 | 1060.86 | 1050.92 | 1041.03 | 1031.18 | 1429.8 | 1394.6 | 1359.3 | 1324.3
x1 = 0.8 | 1097.24 | 1087.06 | 1076.9 | 1066.74 | 1452.2 | 1416.4 | 1380.7 | 1345.3
x1 = 0.8497 | 1115.11 | 1104.87 | 1094.66 | 1084.43 | 1463.1 | 1427.1 | 1391.3 | 1355.7
x1 = 0.8999 | 1133.5 | 1123.12 | 1112.74 | 1102.3 | 1474.2 | 1438.1 | 1401.9 | 1366.2
x1 = 1 | 1169.93 | 1159.33 | 1148.69 | 1138.01 | 1495.4 | 1458.8 | 1422.5 | 1386.5

O=Cc1ccco1 [2-furaldehyde] + CCO
Conditions | mass density, 283.15 K [kg/m3] | mass density, 293.15 K [kg/m3] | mass density, 303.15 K [kg/m3] | mass density, 313.15 K [kg/m3] | speed of sound, 283.15 K [m/s] | speed of sound, 293.15 K [m/s] | speed of sound, 303.15 K [m/s] | speed of sound, 313.15 K [m/s]
x1 = 0.0486 | 825.34 | 816.58 | 807.7 | 798.67 | 1221.8 | 1187.2 | 1152.6 | 1118.5
x1 = 0.0995 | 852.29 | 843.29 | 834.16 | 824.83 | 1245.2 | 1210.4 | 1175.6 | 1141.2
x1 = 0.15 | 877.44 | 868.21 | 858.83 | 849.37 | 1265.6 | 1230.5 | 1195.7 | 1161.2
x1 = 0.2 | 901.29 | 891.88 | 882.29 | 872.64 | 1284.6 | 1249.7 | 1214.8 | 1180.2
x1 = 0.25 | 924.5 | 914.91 | 905.24 | 895.34 | 1302.7 | 1267.7 | 1232.8 | 1198.2
x1 = 0.3001 | 946.91 | 937.18 | 927.3 | 917.42 | 1320.2 | 1285.2 | 1250.3 | 1215.7
x1 = 0.4501 | 1007.43 | 997.35 | 987.26 | 977.03 | 1367.1 | 1331.9 | 1296.9 | 1262.3
x1 = 0.6501 | 1076.56 | 1066.08 | 1055.65 | 1045.07 | 1421.3 | 1385.7 | 1350.4 | 1315.4
x1 = 0.7007 | 1091.79 | 1081.25 | 1070.76 | 1060.22 | 1433.5 | 1398 | 1362.5 | 1327.2
x1 = 0.7498 | 1105.77 | 1095.26 | 1084.63 | 1074.13 | 1444.7 | 1409.1 | 1373.4 | 1338
x1 = 0.8003 | 1119.65 | 1109.04 | 1098.47 | 1087.81 | 1455.7 | 1419.9 | 1384.2 | 1348.8
x1 = 0.8503 | 1132.81 | 1122.12 | 1111.5 | 1100.88 | 1466.4 | 1430.6 | 1394.6 | 1358.8
x1 = 0.9004 | 1145.37 | 1134.68 | 1124.08 | 1113.48 | 1476.6 | 1440.3 | 1404.2 | 1368.5
x1 = 0.9498 | 1157.85 | 1147.23 | 1136.49 | 1125.72 | 1486.3 | 1450.1 | 1413.8 | 1377.8
x1 = 1 | 1169.93 | 1159.33 | 1148.69 | 1138.01 | 1495.4 | 1458.8 | 1422.5 | 1386.5
